# Data reported in ChEMBL document CHEMBL4879554, “Data for DCP probe GNE-2256” (2021).
# Assays:
# [1] = biological target: Serine/threonine-protein kinase D1 (Homo sapiens) (UniProt Q15139); test: PKD1 Kinase panel; details: Compound concentration 1.0 uM
# [2] = biological target: MAP kinase-interacting serine/threonine-protein kinase 1 (Homo sapiens) (UniProt Q9BUB5); test: MKNK1 Kinase panel; details: Compound concentration 1.0 uM
# [3] = biological target: RAC-beta serine/threonine-protein kinase (Homo sapiens) (UniProt P31751); test: AKT2 Kinase panel; details: Compound concentration 1.0 uM
# [4] = biological target: Mast/stem cell growth factor receptor Kit (Homo sapiens) (UniProt P10721); test: Kit Kinase panel; details: Compound concentration 1.0 uM
# Mast/stem cell growth factor receptor Kit (Homo sapiens), sequence (P10721 whole entry): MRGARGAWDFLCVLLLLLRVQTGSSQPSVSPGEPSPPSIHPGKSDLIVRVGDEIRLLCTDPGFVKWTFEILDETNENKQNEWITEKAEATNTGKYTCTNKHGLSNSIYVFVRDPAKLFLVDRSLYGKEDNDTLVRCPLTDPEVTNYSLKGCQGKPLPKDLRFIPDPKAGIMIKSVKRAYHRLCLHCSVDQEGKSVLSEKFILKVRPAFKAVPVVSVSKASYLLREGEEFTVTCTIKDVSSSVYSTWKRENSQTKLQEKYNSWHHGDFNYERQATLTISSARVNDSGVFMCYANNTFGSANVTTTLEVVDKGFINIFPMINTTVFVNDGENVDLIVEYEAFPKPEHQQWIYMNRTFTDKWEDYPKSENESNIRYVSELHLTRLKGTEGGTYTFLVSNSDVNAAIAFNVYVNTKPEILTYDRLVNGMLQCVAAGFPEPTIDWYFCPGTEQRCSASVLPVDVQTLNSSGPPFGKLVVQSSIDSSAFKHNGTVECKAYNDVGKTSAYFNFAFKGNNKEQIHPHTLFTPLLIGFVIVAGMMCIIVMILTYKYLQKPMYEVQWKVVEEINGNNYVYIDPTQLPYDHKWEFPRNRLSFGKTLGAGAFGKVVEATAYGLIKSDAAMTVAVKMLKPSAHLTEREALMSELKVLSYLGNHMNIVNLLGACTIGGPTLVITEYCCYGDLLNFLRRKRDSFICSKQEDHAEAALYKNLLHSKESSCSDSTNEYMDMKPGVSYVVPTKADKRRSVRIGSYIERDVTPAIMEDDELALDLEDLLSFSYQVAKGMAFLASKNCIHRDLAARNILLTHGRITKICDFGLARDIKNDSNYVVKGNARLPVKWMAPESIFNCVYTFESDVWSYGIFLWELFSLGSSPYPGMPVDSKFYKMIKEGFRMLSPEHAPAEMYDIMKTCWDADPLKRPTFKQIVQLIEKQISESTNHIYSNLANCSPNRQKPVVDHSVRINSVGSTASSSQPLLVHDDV
# [5] = biological target: Serine/threonine-protein kinase Chk2 (Homo sapiens) (UniProt O96017); test: CHK2 Kinase panel; details: Compound concentration 1.0 uM
# [6] = biological target: Ephrin type-B receptor 1 (Homo sapiens) (UniProt P54762); test: EphB1 Kinase panel; details: Compound concentration 1.0 uM
# [7] = biological target: Mu-type opioid receptor (Homo sapiens) (UniProt P35372); details: Compound concentration 10.0 uM
# [8] = biological target: Dual specificity protein kinase CLK3 (Homo sapiens) (UniProt P49761); test: CLK3 Kinase panel; details: Compound concentration 1.0 uM
# [9] = biological target: SRSF protein kinase 3 (Homo sapiens) (UniProt Q9UPE1); test: MSSK1 Kinase panel; details: Compound concentration 1.0 uM
# [10] = biological target: Serine/threonine-protein kinase 33 (Homo sapiens) (UniProt Q9BYT3); test: STK33 Kinase panel; details: Compound concentration 1.0 uM
# [11] = biological target: Tyrosine-protein kinase Fes/Fps (Homo sapiens) (UniProt P07332); test: Fes Kinase panel; details: Compound concentration 1.0 uM
# [12] = biological target: Ephrin type-B receptor 3 (Homo sapiens) (UniProt P54753); test: EphB3 Kinase panel; details: Compound concentration 1.0 uM
# [13] = biological target: Tyrosine-protein kinase Srms (Homo sapiens) (UniProt Q9H3Y6); test: Srm Kinase panel; details: Compound concentration 1.0 uM
# [14] = biological target: Histamine H2 receptor (Homo sapiens) (UniProt P25021); details: Compound concentration 10.0 uM
# [15] = biological target: Tyrosine-protein kinase JAK1 (Homo sapiens, UniProt P23458); test: NanoBRET assay (JAK1, SGC Frankfurt)
# [16] = biological target: Beta-1 adrenergic receptor (Homo sapiens) (UniProt P08588); details: Compound concentration 10.0 uM
# [17] = biological target: Serine/threonine-protein kinase WNK2 (Homo sapiens) (UniProt Q9Y3S1); test: WNK2 Kinase panel; details: Compound concentration 1.0 uM
# [18] = biological target: 5-hydroxytryptamine receptor 5A (Homo sapiens) (UniProt P47898); details: Compound concentration 10.0 uM
# [19] = biological target: CDK9/cyclin T1 (Homo sapiens) (UniProt O60563+P50750); test: CDK9/cyclinT1 Kinase panel; format: protein-complex assay; details: Compound concentration 1.0 uM
# [20] = biological target: Receptor tyrosine-protein kinase erbB-2 (Homo sapiens) (UniProt P04626); test: ErbB2 Kinase panel; details: Compound concentration 1.0 uM
# [21] = biological target: Casein kinase I isoform gamma-1 (Homo sapiens) (UniProt Q9HCP0); test: CK1_gamma1 Kinase panel; details: Compound concentration 1.0 uM
# [22] = biological target: 5-hydroxytryptamine receptor 1A (Homo sapiens) (UniProt P08908); details: Compound concentration 10.0 uM
# [23] = biological target: Cyclin-dependent kinase 2/cyclin A (Homo sapiens) (UniProt P24941+P20248+P78396); test: CDK2/cyclinA Kinase panel; format: protein-complex assay; details: Compound concentration 1.0 uM
# [24] = biological target: Mitogen-activated protein kinase 9 (Homo sapiens) (UniProt P45984); test: JNK2 Kinase panel; details: Compound concentration 1.0 uM
# [25] = biological target: RAC-alpha serine/threonine-protein kinase (Homo sapiens) (UniProt P31749); test: AKT1 Kinase panel; details: Compound concentration 1.0 uM
# [26] = biological target: Serine/threonine-protein kinase TBK1 (Homo sapiens) (UniProt Q9UHD2); test: TBK1 Kinase panel; details: Compound concentration 1.0 uM
# [27] = biological target: Macrophage-stimulating protein receptor (Homo sapiens) (UniProt Q04912); test: Ron Kinase panel; details: Compound concentration 1.0 uM
# Macrophage-stimulating protein receptor (Homo sapiens), sequence (Q04912 25-304 limits assumed): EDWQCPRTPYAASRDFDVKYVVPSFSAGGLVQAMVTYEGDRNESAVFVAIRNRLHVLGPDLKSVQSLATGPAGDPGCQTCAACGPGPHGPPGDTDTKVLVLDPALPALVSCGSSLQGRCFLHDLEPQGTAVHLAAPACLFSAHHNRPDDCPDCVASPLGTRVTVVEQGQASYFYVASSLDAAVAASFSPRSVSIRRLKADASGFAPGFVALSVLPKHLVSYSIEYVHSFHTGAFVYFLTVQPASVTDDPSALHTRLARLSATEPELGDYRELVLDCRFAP
# Macrophage-stimulating protein receptor (Homo sapiens), sequence (Q04912 310-1400 limits assumed): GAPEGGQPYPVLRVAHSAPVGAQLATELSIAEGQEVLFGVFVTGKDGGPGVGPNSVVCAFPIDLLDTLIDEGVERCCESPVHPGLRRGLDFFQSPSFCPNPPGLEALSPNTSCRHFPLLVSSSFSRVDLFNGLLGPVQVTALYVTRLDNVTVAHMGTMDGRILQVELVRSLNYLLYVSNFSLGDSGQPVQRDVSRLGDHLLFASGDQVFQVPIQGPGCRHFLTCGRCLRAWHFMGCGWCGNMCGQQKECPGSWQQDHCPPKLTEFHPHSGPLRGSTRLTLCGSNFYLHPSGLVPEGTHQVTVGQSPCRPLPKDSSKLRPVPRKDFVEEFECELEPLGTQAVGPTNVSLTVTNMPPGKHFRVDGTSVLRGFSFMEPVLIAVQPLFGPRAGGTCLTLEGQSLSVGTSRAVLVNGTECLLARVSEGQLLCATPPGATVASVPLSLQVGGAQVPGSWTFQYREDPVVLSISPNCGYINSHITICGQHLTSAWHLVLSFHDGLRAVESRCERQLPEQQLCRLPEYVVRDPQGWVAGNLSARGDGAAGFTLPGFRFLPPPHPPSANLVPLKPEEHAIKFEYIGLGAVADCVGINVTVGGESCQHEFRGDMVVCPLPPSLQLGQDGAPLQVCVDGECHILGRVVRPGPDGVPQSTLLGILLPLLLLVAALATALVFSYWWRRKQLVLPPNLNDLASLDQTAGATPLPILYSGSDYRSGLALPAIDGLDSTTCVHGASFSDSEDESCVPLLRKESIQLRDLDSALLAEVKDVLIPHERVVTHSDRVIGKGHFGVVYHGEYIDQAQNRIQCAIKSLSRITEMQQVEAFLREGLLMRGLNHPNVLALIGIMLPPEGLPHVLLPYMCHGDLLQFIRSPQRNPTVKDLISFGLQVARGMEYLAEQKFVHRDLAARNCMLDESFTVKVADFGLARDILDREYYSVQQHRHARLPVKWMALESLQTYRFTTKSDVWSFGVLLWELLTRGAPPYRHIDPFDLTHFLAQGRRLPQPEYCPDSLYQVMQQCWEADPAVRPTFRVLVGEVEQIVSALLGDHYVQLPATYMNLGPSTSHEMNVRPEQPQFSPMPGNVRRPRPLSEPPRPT
# [28] = biological target: Macrophage colony-stimulating factor 1 receptor (Homo sapiens) (UniProt P07333); test: CSF1R Kinase panel; details: Compound concentration 1.0 uM
# [29] = biological target: Serine/threonine-protein kinase PLK3 (Homo sapiens) (UniProt Q9H4B4); test: PLK3 Kinase panel; details: Compound concentration 1.0 uM
# [30] = biological target: 5-hydroxytryptamine receptor 2B (Homo sapiens, UniProt P41595); details: Compound concentration 10.0 uM
# [31] = biological target: MAP kinase-activated protein kinase 3 (Homo sapiens) (UniProt Q16644); test: MAPKAPK3 Kinase panel; details: Compound concentration 1.0 uM
# [32] = biological target: Serine/threonine-protein kinase 3 (Homo sapiens) (UniProt Q13188); test: MST2 Kinase panel; details: Compound concentration 1.0 uM
# [33] = biological target: G protein-coupled receptor kinase 3 (Homo sapiens) (UniProt P35626); test: GRK3 Kinase panel; details: Compound concentration 1.0 uM
# G protein-coupled receptor kinase 3 (Homo sapiens), sequence (P35626 whole entry): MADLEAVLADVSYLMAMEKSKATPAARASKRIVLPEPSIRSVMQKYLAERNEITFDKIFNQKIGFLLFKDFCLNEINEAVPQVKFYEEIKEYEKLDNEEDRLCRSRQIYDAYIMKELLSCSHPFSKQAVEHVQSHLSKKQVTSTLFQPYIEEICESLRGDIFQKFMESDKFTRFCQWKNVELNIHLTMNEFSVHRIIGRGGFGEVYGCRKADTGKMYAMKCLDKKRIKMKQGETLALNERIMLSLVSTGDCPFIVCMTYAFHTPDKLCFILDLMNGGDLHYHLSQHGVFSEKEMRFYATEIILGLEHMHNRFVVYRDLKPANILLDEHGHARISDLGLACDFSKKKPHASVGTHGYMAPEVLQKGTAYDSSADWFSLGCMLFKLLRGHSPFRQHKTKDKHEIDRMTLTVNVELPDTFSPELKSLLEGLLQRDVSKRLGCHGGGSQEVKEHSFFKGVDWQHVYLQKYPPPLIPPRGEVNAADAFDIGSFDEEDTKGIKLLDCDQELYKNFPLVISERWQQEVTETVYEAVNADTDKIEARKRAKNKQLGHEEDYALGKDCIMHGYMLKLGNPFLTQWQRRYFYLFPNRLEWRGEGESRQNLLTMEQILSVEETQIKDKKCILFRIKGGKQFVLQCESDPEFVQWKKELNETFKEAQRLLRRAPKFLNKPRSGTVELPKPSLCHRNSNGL
# [34] = biological target: D(4) dopamine receptor (Homo sapiens) (UniProt P21917); details: Compound concentration 10.0 uM
# [35] = biological target: Homeodomain-interacting protein kinase 4 (Homo sapiens) (UniProt Q8NE63); test: HIPK4 Kinase panel; details: Compound concentration 1.0 uM
# [36] = biological target: Dual specificity protein kinase CLK4 (Homo sapiens) (UniProt Q9HAZ1); test: CLK4 Kinase panel; details: Compound concentration 1.0 uM
# [37] = biological target: Histamine H3 receptor (Homo sapiens) (UniProt Q9Y5N1); details: Compound concentration 10.0 uM
# [38] = biological target: Muscarinic acetylcholine receptor M5 (Homo sapiens) (UniProt P08912); details: Compound concentration 10.0 uM
# [39] = biological target: Calcium/calmodulin-dependent protein kinase kinase 2 (Homo sapiens) (UniProt Q96RR4); test: CAMKK2 Kinase panel; details: Compound concentration 1.0 uM
# [40] = biological target: Alpha-1B adrenergic receptor (Homo sapiens) (UniProt P35368); details: Compound concentration 10.0 uM
# [41] = biological target: Cyclin-dependent kinase 7/ cyclin H (Homo sapiens) (UniProt P51946+P50613); test: CDK7/cyclinH Kinase panel; format: protein-complex assay; details: Compound concentration 1.0 uM
# [42] = biological target: Tyrosine-protein kinase JAK2 (Homo sapiens, UniProt O60674); test: NanoBRET assay (JAK2, SGC Frankfurt)
# [43] = biological target: Testis-specific serine/threonine-protein kinase 1 (Homo sapiens) (UniProt Q9BXA7); test: TSSK1 Kinase panel; details: Compound concentration 1.0 uM
# [44] = biological target: Glycogen synthase kinase-3 alpha (Homo sapiens) (UniProt P49840); test: GSK3_alpha Kinase panel; details: Compound concentration 1.0 uM
# [45] = biological target: Protein kinase C alpha type (Homo sapiens) (UniProt P17252); test: PKC_alpha Kinase panel; details: Compound concentration 1.0 uM
# [46] = biological target: Proto-oncogene tyrosine-protein kinase receptor Ret (Homo sapiens) (UniProt P07949); test: Ret Kinase panel; details: Compound concentration 1.0 uM
# Proto-oncogene tyrosine-protein kinase receptor Ret (Homo sapiens), sequence (P07949 whole entry): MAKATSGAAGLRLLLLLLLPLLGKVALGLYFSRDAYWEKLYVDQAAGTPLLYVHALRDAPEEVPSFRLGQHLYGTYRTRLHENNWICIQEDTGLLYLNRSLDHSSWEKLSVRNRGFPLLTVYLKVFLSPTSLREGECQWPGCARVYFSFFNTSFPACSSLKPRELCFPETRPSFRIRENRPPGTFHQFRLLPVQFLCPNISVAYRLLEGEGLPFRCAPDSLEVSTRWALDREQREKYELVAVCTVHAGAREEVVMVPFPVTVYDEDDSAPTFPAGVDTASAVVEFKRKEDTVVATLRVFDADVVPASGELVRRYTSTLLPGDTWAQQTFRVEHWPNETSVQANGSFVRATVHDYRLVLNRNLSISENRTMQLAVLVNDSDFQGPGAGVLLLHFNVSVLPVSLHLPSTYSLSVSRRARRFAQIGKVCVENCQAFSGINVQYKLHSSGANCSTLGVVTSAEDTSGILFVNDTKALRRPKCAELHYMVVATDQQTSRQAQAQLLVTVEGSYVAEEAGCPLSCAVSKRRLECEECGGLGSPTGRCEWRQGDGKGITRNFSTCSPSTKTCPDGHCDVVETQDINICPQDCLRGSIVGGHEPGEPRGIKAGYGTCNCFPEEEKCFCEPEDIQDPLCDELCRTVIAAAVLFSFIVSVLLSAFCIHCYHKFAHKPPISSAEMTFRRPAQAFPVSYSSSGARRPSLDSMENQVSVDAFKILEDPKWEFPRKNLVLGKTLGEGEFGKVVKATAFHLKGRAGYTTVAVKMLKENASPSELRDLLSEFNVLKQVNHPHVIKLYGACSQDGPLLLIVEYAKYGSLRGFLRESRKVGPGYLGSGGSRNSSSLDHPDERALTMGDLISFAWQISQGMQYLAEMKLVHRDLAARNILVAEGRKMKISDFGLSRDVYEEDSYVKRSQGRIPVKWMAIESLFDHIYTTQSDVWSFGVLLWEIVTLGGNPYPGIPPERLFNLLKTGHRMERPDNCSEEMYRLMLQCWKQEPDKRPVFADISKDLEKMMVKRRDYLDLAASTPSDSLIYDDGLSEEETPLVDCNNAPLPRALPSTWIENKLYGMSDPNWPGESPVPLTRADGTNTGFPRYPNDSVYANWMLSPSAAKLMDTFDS
# [47] = biological target: Ribosomal protein S6 kinase alpha-3 (Homo sapiens) (UniProt P51812); test: RSK2 Kinase panel; details: Compound concentration 1.0 uM
# [48] = biological target: BDNF/NT-3 growth factors receptor (Homo sapiens) (UniProt Q16620); test: TrkB Kinase panel; details: Compound concentration 1.0 uM
# BDNF/NT-3 growth factors receptor (Homo sapiens), sequence (Q16620 32-822 limits assumed): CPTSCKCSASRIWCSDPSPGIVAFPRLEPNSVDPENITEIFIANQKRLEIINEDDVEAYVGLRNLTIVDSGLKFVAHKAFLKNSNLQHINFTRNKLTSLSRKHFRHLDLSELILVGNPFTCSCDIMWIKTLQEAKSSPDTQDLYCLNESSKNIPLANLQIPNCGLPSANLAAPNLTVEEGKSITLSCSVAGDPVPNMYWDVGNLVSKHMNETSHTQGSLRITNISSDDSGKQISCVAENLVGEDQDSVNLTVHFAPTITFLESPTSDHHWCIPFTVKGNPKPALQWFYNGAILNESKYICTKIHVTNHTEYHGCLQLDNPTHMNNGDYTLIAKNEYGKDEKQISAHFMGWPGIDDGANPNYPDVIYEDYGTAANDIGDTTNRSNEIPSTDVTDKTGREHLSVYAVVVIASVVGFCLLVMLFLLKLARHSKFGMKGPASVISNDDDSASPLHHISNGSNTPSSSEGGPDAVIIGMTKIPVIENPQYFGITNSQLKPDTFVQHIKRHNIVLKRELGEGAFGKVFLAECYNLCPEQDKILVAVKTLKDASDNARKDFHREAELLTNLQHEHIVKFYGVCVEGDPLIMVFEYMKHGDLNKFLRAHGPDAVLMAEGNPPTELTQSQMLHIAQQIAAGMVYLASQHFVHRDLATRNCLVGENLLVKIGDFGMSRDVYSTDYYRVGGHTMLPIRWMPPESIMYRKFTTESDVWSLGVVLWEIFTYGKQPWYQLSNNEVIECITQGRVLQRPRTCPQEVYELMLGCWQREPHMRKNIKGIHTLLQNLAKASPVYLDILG
# [49] = system: Epidermal growth factor receptor (Homo sapiens), P00533 [L858R,T790M]; test: EGFR(T790M,L8 58R) Kinase panel; details: Compound concentration 1.0 uM
# [50] = biological target: Alpha-2B adrenergic receptor (Homo sapiens) (UniProt P18089); details: Compound concentration 10.0 uM
# [51] = biological target: Protein kinase C eta type (Homo sapiens) (UniProt P24723); test: PKC_eta Kinase panel; details: Compound concentration 1.0 uM
# [52] = biological target: Tyrosine-protein kinase Yes (Homo sapiens) (UniProt P07947); test: Yes Kinase panel; details: Compound concentration 1.0 uM
# [53] = biological target: Interleukin-1 receptor-associated kinase 1 (Homo sapiens) (UniProt P51617); test: IRAK1 Kinase panel; details: Compound concentration 1.0 uM
smiles,measurement,setting,value
CC(C)(O)[C@H](F)CN1Cc2cc(NC(=O)c3cnn4cccnc34)c(N3CCOCC3)cc2C1=O,inhibition,[1],7.5%
same,inhibition,[2],-6%
same,inhibition,[3],7.5%
same,inhibition,[4],3%
same,inhibition,[5],13%
same,inhibition,[6],23%
same,inhibition,[7],6.2%
same,inhibition,[8],10%
same,inhibition,[9],2.5%
same,inhibition,[10],3.5%
same,inhibition,[11],19%
same,inhibition,[12],-0%
same,inhibition,[13],16%
same,inhibition,[14],-2.71%
same,EC50,[15],> 50 µM (not active)
same,inhibition,[16],1.93%
same,inhibition,[17],2.5%
same,inhibition,[18],-0.55%
same,inhibition,[19],2.5%
same,inhibition,[20],1.5%
same,inhibition,[21],-3.5%
same,inhibition,[22],-2.64%
same,inhibition,[23],3%
same,inhibition,[24],2.5%
same,inhibition,[25],0.5%
same,inhibition,[26],5.5%
same,inhibition,[27],2.5%
same,inhibition,[28],25.3%
same,inhibition,[29],-3%
same,inhibition,[30],84.1%
same,inhibition,[31],6%
same,inhibition,[32],7%
same,inhibition,[33],-1%
same,inhibition,[34],-9.22%
same,inhibition,[35],2.5%
same,inhibition,[36],47.8%
same,inhibition,[37],-5.14%
same,inhibition,[38],-6.7%
same,inhibition,[39],8.5%
same,inhibition,[40],-5.24%
same,inhibition,[41],4%
same,EC50,[42],> 50 µM (not active)
same,inhibition,[43],5%
same,inhibition,[44],15.5%
same,inhibition,[45],11%
same,inhibition,[46],31.5%
same,inhibition,[47],15%
same,inhibition,[48],86%
same,inhibition,[49],13%
same,inhibition,[50],-0.98%
same,inhibition,[51],8%
same,inhibition,[52],41.5%
same,inhibition,[53],64.3%
